One test relates to histone deacetylation. Description: acetylated lysine / acetylated histone in cells (AcLysine cytoblot, immunofluorescence, Western blot). Type of test: cell-based, human. To be noted: A549 (also BS-C-1) cells, tubacin, niltubacin 2 μM, histacin 20 μM, library ~2-5 μM, 18 h. The procedure: A549 cells were seeded at a density of 4,000 cells/50 μl in DMEM+ in white tissue culture-treated 384-well plates (Nalge Nunc) using a Multidrop 384 liquid dispenser (Labsystems). Library small molecules were pinned twice (100-150 nl/pin) from ˜1 mM stock solutions (DMSO) and incubated for 18 hours. For the ITSA1+AcTubulin assay, ITSA1 (50 μM) was added four hours after pin-transfer of library molecules. Media was aspirated with a 16-channel wand. For the acetylated α-tubulin cytoblot (AcTubulin), 40 μl/well of fixation solution (3.7% formaldehyde (1:10 from 37% stock) in Tris-buffered saline (TBS, 0.15 M NaCl, 0.02 M Tris-Cl, pH 7.4) was added and plates incubated for twenty minutes at room temperature. After aspiration, 30 μl 100% methanol (−20° C.) was added and incubated for five minutes at room temperature. After aspirating and washing three times with 90 μl of antibody dilution buffer (ADB, TBS/2% bovine serum albumin, 0.1% TritonX-100) the wells were blocked for twenty minutes in ADB. After aspirating, 20 μl/well of ADB containing anti-acetylated α-tubulin antibody (mouse; 1:1000) and anti-mouse IgG horseradish peroxidase (HRP)-conjugated antibody (1:750) was added and incubated overnight (4° C.). For the anti-acetyl lysine cytoblot (AcLysine), 40 μl/well of fixation solution (95% ethanol/5% acetic acid, −20° C.) was added and plates incubated for five minutes at room temperature. Wells were aspirated, washed, and blocked in ADB as for the AcTubulin protocol. After aspirating, 20 μl/well of ADB containing anti-acetylated lysine (rabbit; 1:375) and anti-rabbit IgG-HRP conjugated antibody (1:750) was added and incubated overnight (4° C.). For the anti-acetylated histone H3 (AcHistH3) and anti-acetylated histone H4 (AcHistH4) cytoblots, cells were fixed, washed, and blocked in ADB as for the AcLysine cytoblot. After aspirating, 20 μl/well of ADB containing anti-acetylated histone H3 antibody (rabbit, 1:500) or anti-acetylated histone H4 antibody (rabbit, 1:500) was added and incubated for two hours at room temperature. Wells were aspirated and washed twice with 80 μl of ADB. After aspirating, 20 μl/well of ADB containing anti-rabbit IgG-HRP conjugated antibody (1:1000) was added and incubated for two hours (room temperature). For the AcTubulin and AcLysine assays, plates were washed three times with TBS before adding 20 μl/well of enhanced chemiluminescent (ECL) mixture. For the AcHistH3 and AcHistH4 assays, plates were washed three times with 80 μl TBS with 1% Triton X-100 and once with 80 μl TBS before adding 20 μl/well of ECL mixture. Plates were read on an Analyst plate reader (LJL Biosystems) with an integration time of 0.1 seconds.
1,3-dioxanes from single polystyrene macrobeads were prepared as 1-2 mM stock solutions in DMSO as described [Hubbert, C., Guardiola, A., Shao, R., Kawaguchi, Y., Ito, A., Nixon, A., Yoshida, M., Wang, X. F., and Yao, T. P. (2002). HDAC6 is a microtubule-associated deacetylase. Nature 417, 455-458]. Bead decoding and structure determination were as described [See for example, Hubbert, C., Guardiola, A., Shao, R., Kawaguchi, Y., Ito, A., Nixon, A., Yoshida, M., Wang, X. F., and Yao, T. P. (2002). HDAC6 is a microtubule-associated deacetylase. Nature 417, 455-458; and Piperno, G., LeDizet, M., and Chang, X. J. (1987). Microtubules containing acetylated alpha-tubulin in mammalian cells in culture. J. Cell Biol. 104, 289-302]. Small molecules (˜2-5 μM) of interest were retested using a sample from the plate of stock solutions by fluorescence microscopy and comparison to the effects of trichostatin (300 nM to 1 μM).
A549 cells were seeded at a density of 50,000/200 μl in DMEM+ on the surface of glass coverslips on top of Parafilm in a 10 cm dish and allowed to attach overnight. For detection of acetylated α-tubulin, cells were permeabilized and fixed with 100 mM K-PIPES, pH 6.8, 10 mM EGTA, 1 mM MgCl2, 0.2% triton X-100, 0.2% glutaraldehyde for fifteen minutes. […]
(Immunoblotting shows a protein as a band on a membrane.)

A further test concerns A549 cells. Kind of test: mitotic abnormalities by immunofluorescence. It counts as cell-based, human. To be noted: 18 h or 24 h treatment, TSA 10 μM in FIG. 42C. The procedure: Detection of acetylated α-tubulin and acetylated histones by immunofluorescence was performed as described in Example 6 above. For determining microtubule stability, A549 cells were treated as indicated, fixed in glutaraldehyde, and stained for acetylated α-tubulin and total α-tubulin in antibody dilution buffer (ADB, Tris-buffered saline (TBS), 0.15 M NaCl, 0.02 M Tris-Cl, pH 7.4, with 2% bovine serum albumin and 0.1% Triton-X 100). For cold-depolymerization, cells were incubated at 4° C. or 37° C. for an additional 90 minutes before fixation. For calcium depolymerization, cells were incubated at 37° C. for 10 minutes in a microtubule-stabilizing buffer (0.2% NP-40, 5 mM MgCl2, 2 mM EGTA, 2 M glycerol, 100 mM PIPES, pH 6.8) with and without the addition of CaCl2 (2 mM) before glutaraldehyde fixation. For co-localization experiments, biotubacin (50 μM) treated A549 cells were fixed in 3.7% formaldehyde in TBS and processed as for detecting acetylated α-tubulin (See Example 6 above) with biotubacin detected using streptavidin-TR (1:500). HDAC6 was detected using a rabbit polyclonal antibody (1:250-1:750; C.M.G., unpublished data) under the conditions used to detect acetylated α-tubulin (See Example 6 above). Filamentous actin in HT-1080 cells was detected using TR-conjugated phalloidin (1 μg/mL), and depolymerized actin using FITC-conjugated deoxyribonuclease (10 μg/mL), following fixation in 3.7% formaldehyde in TBS. p58 (1:100) in NIH-3T3 cells was detected after fixation in 3.7% formaldehyde in TBS. Images for these experiments were collected on a Zeiss LSM510 confocal scanning laser microscope at the appropriate wavelengths using the accompanying software and processed with Adobe Photoshop. Deconvoluted serial images of TSA and DMSO treated A549 cells were obtained by taking sections (8μ) on a Zeiss Axioskop 2 microscope using an AxioCam camera and the accompanying software. Rat hippocampal neuronal cultures were fixed at room temperature for 15 min in phosphate-buffered saline (PBS) containing 4% paraformaldehyde. […]

“Also recorded” adds a separate entry of the source.

For the molecule `CC(/C=C/C(=O)NO)=C\[C@@H](C)C(=O)c1ccc(N(C)C)cc1` [TSA, trichostatin A, reference compound], the “effect on histone deacetylation / lysine or histone acetylation in cells” value with histone deacetylation was “an inhibitor of both α-tubulin and histone deacetylation”. Also, in the test with A549 cells, the mitotic abnormalities result is listed as “Mitotic abnormalities in A549 cells induced by TSA; also recorded: caused a significant number of abnormal mitotic cells”.

As to `O=C(CCCCCCC(=O)Nc1ccc([C@@H]2OC(c3ccc(CO)cc3)C[C@H](CSc3nc(-c4ccccc4)c(-c4ccccc4)o3)O2)cc1)NO` (stereo partly drawn) [tubacin], the “effect on histone deacetylation / lysine or histone acetylation in cells” value in the test with histone deacetylation is recorded as “did not affect histone acetylation”; in the test with histone deacetylation (listed as 415 N3) it was “no effect on lysine acetylation”; in the test with histone deacetylation (listed as JCWII114), “no visible effect on histone deacetylation”. Further, the mitotic abnormalities result in the test on A549 cells is reported as “did not increase the frequency of mitotic abnormalities; also recorded: had neither an effect on the number of mitotic cells nor spindle morphology”.

For the origin of these results see patent publication US8178579B2, “Dioxanes and uses thereof” (President and Fellows of Harvard College, priority 2001, dated 2012).
